From patent publication US7244724B2, “Pyrrolobenzodiazepines” (United States of America, Represented by the Secretary, …, priority 2003, dated 2007)

Key:
[1] = Stability in d6-DMSO, d4-MeOH and D2O by 1H NMR (Study 4); format: physicochemical
Protocol: Samples of SJG-720 (˜3 mg) were dissolved in d6-DMSO, D2O and d4-MeOH (Cambridge Isotopes) and transferred to separate NMR tubes (Wilmad, 5 mm). ^1H NMR spectra were obtained on a Bruker Avance 400 MHz NMR spectrophotometer (typically 64 scans). ^13C and DEPT (Distortionless Enhancement through Polarized Transfer) experiments were performed on these samples using the same instrument at the appropriate field strength (100 MHz).
NMR spectra were recorded, as described above, after the following time intervals: • d6-DMSO, 1 hr, 8 days. • D2O, 3 hrs, 8 days. • d4-MeOH, 10 minutes, 3 days. Additional Studies
NMR experiments were carried out on SJG-136 in its carbinolamine forms. […] However, strong signals corresponding to the kinetic and thermodynamic carbinolamine forms can be observed when the sample is analysed in d6-DMSO. These gradually disappear from the spectra over a period of about 24 hours when the imine form becomes the predominant species.
Samples of the bisulphite adduct SJG-720 dissolved in d6-DMSO and D2O were stored at room temperature for over a period of 7 days and then analysed by ^1H NMR spectroscopy. […] In addition, a sample of SJG-720 stored at room temperature in d4-MeOH for over 3 days was also analysed by ^1H NMR.

[2] = system: K562 human chronic myeloid leukaemia cells; experiment: K562 assay (MTT cytotoxicity); format: cell-based; conditions: 96 h, 4 days incubation, n=2
Protocol: An initial stock of compound (in 0.006% DMSO) was used to generate a 1:3 dilution series ranging from 600 nM to 30 pM be the sequential addition of 40 μL compound to 80 μL of solvent (0.006% DMSO in sterile H2O). 10 μL of each point of the dilution range was transferred to a 96 well assay plate (Nunc, Cat. No. 163320) to generate four replica points per compound concentration. K562 human chronic myeloid leukaemia cells were maintained in RPM1 1640 medium supplemented with 10% foetal calf serum and 2 mM glutamine at 37° C. in a humidified atmosphere containing 5% CO2. 190 μL of a 5×10^4 cell solution was added to each well of the assay plate using a Matrix Wellmate (Apogent Discoveries), resulting in a total of 9.5×10^3 cells/well. Working compound concentrations therefore ranged from 30 nM to 1.5 pM. Plates were then kept in the dark at 37° C. in a humidified atmosphere containing 5% CO2. The assay is based on the ability of viable cells to reduce a yellow soluble tetrazolium salt, 3-(4,5-dimethylthiazol-2-yl)-2,5-diphenyl-2H-tetrazolium bromide (MTT, Aldrich-Sigma), to an insoluble purple formazan precipitate. […] The optical density was then read at a wavelength of 540 nm on a Fusion plate reader (Perkin Elmer). […]

SMILES | Interconversion of carbinolamine forms to imine ([1]; CDCl3 or CD3CN) | Period over which carbinolamine form signals disappear and the imine form becomes predominant ([1]; carbinolamine forms in d6-DMSO) | IC50 [2] [nM] | Stability in D2O (1H NMR spectrum change) ([1]; D2O, room temperature, over 7 days) | Stability in d4-MeOH (interconversion to carbinolamine methyl ether) ([1]; d4-MeOH, room temperature, over 3 days) | Stability in d6-DMSO (reversion to parent imine) ([1]; d6-DMSO, room temperature, over 7 days)
C=C1C[C@H]2C=Nc3cc(OCCCOc4cc5c(cc4OC)C(=O)N4CC(=C)C[C@H]4C=N5)c(OC)cc3C(=O)N2C1 [SJG-136] | revert to the imine form immediately | about 24 hours | < 10 |  |  | 
C=C1C[C@H]2C(S(=O)(=O)[O-])Nc3cc(OCCCOc4cc5c(cc4OC)C(=O)N4CC(=C)C[C@H]4C(S(=O)(=O)[O-])N5)c(OC)cc3C(=O)N2C1.[Na+].[Na+] (stereo partly drawn) [SJG-720, 1,1′[[(Propane-1,3-diyl)dioxy]bis(11aS)-11-sulpho-7-methoxy-2-methylidene-1,2,3,10,11,11a-hexahydro-5H-pyrrolo[2,1-c][1,4-benzodiazepin-5-one]] sodium salt] |  |  |  | no appreciable hydrolysis had occurred | interconversion to the carbinolamine methyl ether from was not observed | complete absence of parent imine SJG-136 signals
